Our source for the Activity values is ChEMBL document CHEMBL1142097, “EthA, a common activator of thiocarbamide-containing drugs acting on different mycobacterial targets” (Antimicrob Agents Chemother, 2007).

For the test, the system named is Mycobacterium tuberculosis. In words: Antimycobacterial activity against Mycobacterium tuberculosis H37Rv. It counts as functional, organism-based.

The source made the active and inactive calls. No cut-off for these calls is given here.

With `COc1ccc(/C(C)=N/NC(N)=S)cc1`, the outcome was Active.
